In ChEMBL document CHEMBL4334434, “Discovery of napabucasin derivatives for the treatment of tuberculosis” (2019):
In brackets after ≈: the same amount, converted by molar mass.

Tests used:
Format in all cases: functional
[1] = system: Mycobacterium tuberculosis; assay: Antimycobacterial activity against Mycobacterium tuberculosis H37Ra UAlRa incubated for 6 days by luminescence based assay; conditions: 144 h
[2] = system: Mycobacterium tuberculosis; assay: Antimycobacterial activity against Mycobacterium tuberculosis K18
[3] = system: Mycobacterium tuberculosis; assay: Antimycobacterial activity against Mycobacterium tuberculosis K2
[4] = system: Mycobacterium tuberculosis; assay: Antimycobacterial activity against Mycobacterium tuberculosis K4
[5] = system: Mycobacterium tuberculosis; assay: Antimycobacterial activity against Mycobacterium tuberculosis K16
[6] = system: Mycobacterium tuberculosis; assay: Antimycobacterial activity against Mycobacterium tuberculosis K12
[7] = system: Mycobacterium tuberculosis; assay: Antimycobacterial activity against Mycobacterium tuberculosis H37Rv
[8] = system: Mycobacterium tuberculosis; assay: Antimycobacterial activity against Mycobacterium tuberculosis K5

CC(O)c1cc2c(o1)C(=O)c1ccccc1C2=O (configuration not stated)
MIC [1]: 41.2 µM (≈ 9.98 µg/mL)

CC(c1cc2c(o1)C(=O)c1ccccc1C2=O)N1CCCCC1 (configuration not stated)
MIC [1]: 32.3 µM (≈ 9.99 µg/mL)

CC(c1cc2c(o1)C(=O)c1ccccc1C2=O)N1CCOCC1 (configuration not stated)
MIC [1]: 32.1 µM (≈ 9.99 µg/mL)

CC(Br)c1cc2c(o1)C(=O)c1ccccc1C2=O (configuration not stated)
MIC [1]: 16.5 µM (≈ 5.03 µg/mL)

COC(=O)CC1CCN(C(=O)c2cc3c(o2)C(=O)c2ccccc2C3=O)CC1
MIC [1]: 3.28 µM (≈ 1.25 µg/mL)

O=C(NCCN1CCOCC1)c1cc2c(o1)C(=O)c1ccccc1C2=O
MIC [1]: 7.1 µM (≈ 2.52 µg/mL)

O=C(NC1CCCCC1)c1cc2c(o1)C(=O)c1ccccc1C2=O
MIC [1]: 7.7 µM (≈ 2.49 µg/mL)

CCN1CCN(C(=O)c2cc3c(o2)C(=O)c2ccccc2C3=O)CC1
MIC [1]: 7.4 µM (≈ 2.5 µg/mL)

O=C1c2ccccc2C(=O)c2oc(C(=O)N3CCC(c4cccc(Cl)c4)CC3)cc21
MIC [1]: ≥ 23.9 µM

O=C(NCCc1ccccc1)c1cc2c(o1)C(=O)c1ccccc1C2=O
MIC [1]: ≥ 28.9 µM

O=C(NCCc1ccccc1F)c1cc2c(o1)C(=O)c1ccccc1C2=O
MIC [2]: 2.5 µg/mL (≈ 6.88 µM)
MIC [3]: 0.5 µg/mL (≈ 1.38 µM)
MIC [1]: 1.7 µM (≈ 0.618 µg/mL)
MIC [4]: 12.5 µg/mL (≈ 34.4 µM)
MIC [5]: 2.5 µg/mL (≈ 6.88 µM)
MIC [6]: 2.5 µg/mL (≈ 6.88 µM)
MIC [7]: 0.5 µg/mL (≈ 1.38 µM)
MIC [8]: 12.5 µg/mL (≈ 34.4 µM)

O=C(NCCc1ccc(F)cc1)c1cc2c(o1)C(=O)c1ccccc1C2=O
MIC [1]: 1.7 µM (≈ 0.618 µg/mL)

O=C1c2ccccc2C(=O)c2oc(C(=O)N3CCN(c4cccc(C(F)(F)F)c4)CC3)cc21
MIC [2]: 2.5 µg/mL (≈ 5.5 µM)
MIC [3]: 0.5 µg/mL (≈ 1.1 µM)
MIC [1]: 2.7 µM (≈ 1.23 µg/mL)
MIC [4]: 25 µg/mL (≈ 55 µM)
MIC [5]: 1 µg/mL (≈ 2.2 µM)
MIC [6]: 1 µg/mL (≈ 2.2 µM)
MIC [7]: 1 µg/mL (≈ 2.2 µM)
MIC [8]: 25 µg/mL (≈ 55 µM)

O=C1c2ccccc2C(=O)c2oc(C(=O)N3CCCCC3)cc21
MIC [2]: 2.5 µg/mL (≈ 8.08 µM)
MIC [3]: 0.5 µg/mL (≈ 1.62 µM)
MIC [1]: 2 µM (≈ 0.619 µg/mL)
MIC [4]: 12.5 µg/mL (≈ 40.4 µM)
MIC [5]: 1 µg/mL (≈ 3.23 µM)
MIC [6]: 1 µg/mL (≈ 3.23 µM)
MIC [7]: 0.5 µg/mL (≈ 1.62 µM)
MIC [8]: 12.5 µg/mL (≈ 40.4 µM)

O=C1c2ccccc2C(=O)c2oc(C(=O)N3CCC(c4ccc(F)cc4)CC3)cc21
MIC [1]: ≥ 24.9 µM

O=C1c2ccccc2C(=O)c2oc(C(=O)N3CCOCC3)cc21
MIC [1]: 4 µM (≈ 1.25 µg/mL)

O=C1c2ccccc2C(=O)c2oc(C(=O)N3CCCC3)cc21
MIC [1]: 4.2 µM (≈ 1.24 µg/mL)

O=C(NCc1ccccc1F)c1cc2c(o1)C(=O)c1ccccc1C2=O
MIC [1]: 1.8 µM (≈ 0.629 µg/mL)

O=C(/C=C/c1ccccc1)c1cc2c(o1)C(=O)c1ccccc1C2=O
MIC [1]: ≥ 30.4 µM

O=C(NCCc1ccc(Cl)cc1)c1cc2c(o1)C(=O)c1ccccc1C2=O
MIC [1]: 6.6 µM (≈ 2.51 µg/mL)

O=C(NCc1cccc(F)c1)c1cc2c(o1)C(=O)c1ccccc1C2=O
MIC [1]: 0.9 µM (≈ 0.314 µg/mL)

CN1CCN(C(=O)c2cc3c(o2)C(=O)c2ccccc2C3=O)CC1
MIC [1]: 7.7 µM (≈ 2.5 µg/mL)

O=C1c2ccccc2C(=O)c2oc(C(=O)N3CCSCC3)cc21
MIC [2]: 0.5 µg/mL (≈ 1.53 µM)
MIC [3]: 0.25 µg/mL (≈ 0.764 µM)
MIC [1]: 1.9 µM (≈ 0.622 µg/mL)
MIC [4]: 2 µg/mL (≈ 6.11 µM)
MIC [5]: 0.5 µg/mL (≈ 1.53 µM)
MIC [6]: 0.5 µg/mL (≈ 1.53 µM)
MIC [7]: 0.5 µg/mL (≈ 1.53 µM)
MIC [8]: 4 µg/mL (≈ 12.2 µM)

O=C(/C=C/c1cccs1)c1cc2c(o1)C(=O)c1ccccc1C2=O
MIC [1]: 29.9 µM (≈ 10 µg/mL)

O=C1CCN(C(=O)c2cc3c(o2)C(=O)c2ccccc2C3=O)CC1
MIC [1]: 7.7 µM (≈ 2.49 µg/mL)

Cn1cccc1/C=C/C(=O)c1cc2c(o1)C(=O)c1ccccc1C2=O
MIC [1]: ≥ 30.4 µM

O=C(NCCN1CCCCC1)c1cc2c(o1)C(=O)c1ccccc1C2=O
MIC [1]: 3.6 µM (≈ 1.27 µg/mL)

O=C(NCCc1cccc(F)c1)c1cc2c(o1)C(=O)c1ccccc1C2=O
MIC [1]: 0.9 µM (≈ 0.327 µg/mL)

CC1(C)CCC(NC(=O)c2cc3c(o2)C(=O)c2ccccc2C3=O)CC1
MIC [2]: 2.5 µg/mL (≈ 7.11 µM)
MIC [3]: 0.25 µg/mL (≈ 0.711 µM)
MIC [1]: 3.56 µM (≈ 1.25 µg/mL)
MIC [4]: 25 µg/mL (≈ 71.1 µM)
MIC [5]: 2.5 µg/mL (≈ 7.11 µM)
MIC [6]: 2.5 µg/mL (≈ 7.11 µM)
MIC [7]: 0.5 µg/mL (≈ 1.42 µM)
MIC [8]: 25 µg/mL (≈ 71.1 µM)

O=C(NCc1ccc(F)cc1)c1cc2c(o1)C(=O)c1ccccc1C2=O
MIC [1]: 1.8 µM (≈ 0.629 µg/mL)

O=C(/C=C/c1ccc(O)cc1)c1cc2c(o1)C(=O)c1ccccc1C2=O
MIC [1]: ≥ 29.1 µM

CC(=O)c1cc2c(o1)C(=O)c1ccccc1C2=O [NAPABUCASIN]
MIC [1]: 10.4 µM (≈ 2.5 µg/mL)
